For 16 compounds, IC50 results are on record in patent US20190322676A1, “CERAMIDE GALACTOSYLTRANSFERASE INHIBITORS FOR THE TREATMENT OF DISEASE” (BioMarin Pharmaceutical Inc., priority 2016, published 2019).

By pIC50 is commonly meant the IC50 on a negative log10 scale, so that one unit is a factor of ten.

pIC50: −log10 of the molar value. Structures can show the parent of a compound that is named as a salt. Where only a bound is given, the exact number is not on record here.

This test deals with T1, human CGT (ceramide galactosyltransferase), CHO/CGT lysate (Homo sapiens, UniProt Q16880).
T1 construct: Full-length human CGT cDNA was cloned into the BamH1/Xho1 site of pcDNA3.1 (+); expressed in transfected cells; host or cells: Chinese hamster ovary (CHO) cells; lysate prepared with M-PER
T1 sequence (Q16880 21-541): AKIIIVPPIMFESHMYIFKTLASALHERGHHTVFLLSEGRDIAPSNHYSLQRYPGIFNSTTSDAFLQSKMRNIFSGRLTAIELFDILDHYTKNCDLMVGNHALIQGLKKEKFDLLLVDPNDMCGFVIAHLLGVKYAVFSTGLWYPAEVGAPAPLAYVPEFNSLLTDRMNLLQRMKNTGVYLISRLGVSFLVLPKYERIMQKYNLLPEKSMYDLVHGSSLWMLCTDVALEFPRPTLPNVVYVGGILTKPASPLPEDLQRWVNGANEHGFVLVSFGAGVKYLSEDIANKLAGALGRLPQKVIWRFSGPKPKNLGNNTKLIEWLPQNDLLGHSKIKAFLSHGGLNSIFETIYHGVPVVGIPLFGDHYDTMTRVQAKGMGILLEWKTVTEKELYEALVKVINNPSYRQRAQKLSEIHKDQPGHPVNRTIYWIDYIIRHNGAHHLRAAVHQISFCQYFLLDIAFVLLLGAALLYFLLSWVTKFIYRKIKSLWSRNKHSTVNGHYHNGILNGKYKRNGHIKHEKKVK
The test is described as follows: CGT enzyme assay, RapidFire/MS/MS readout (Table 1 ranges with one asterisk *). Conditions: RapidFire method (range with one asterisk *). In kind it is biochemical. Here is the method:
Full-length human CGT cDNA was cloned into the BamH1/Xho1 site of pcDNA3.1 (+) mammalian expression vector (V90-20, Invitrogen, Carlsbad, Calif.) and the plasmid was transfected into Chinese hamster ovary (CHO) cells. Lysate was prepared using M-PER (Mammalian Protein Extraction Reagent, ThermoFisher Scientific, Grand Island, N.Y.) in the presence of a protease inhibitor cocktail (P8340, Sigma, Saint Louis, Mo.). Each 100 mm dish (100% confluent, approximately 1×10^7 cells) was lysed with 250 μL of M-PER containing protease inhibitors. Protein concentration was determined using a Pierce BCA protein assay kit (ThermoFisher Scientific). Four micrograms of CHO/CGT lysate was incubated with various concentrations of a compound (0.001 μM-50 μM) in 10 mM HEPES (pH 7.2) containing 35 μM dioleoylphosphatidylcholine, 5 mM MgCl2, 5 mM MnCl2, 1% BSA, 15 mM KCl, 1 mM EGTA, 8 mM CHAPS, 10 μM C6-NBD-dihydro-ceramide and 17.5 μM UDP-galactose in a final reaction volume of 20 μL at 37° C. for 1 hour. The final concentration of DMSO was 0.5% in both compound-treated and mock-treated samples. Tween 80 (0.01%) was optionally added to the reaction mixture to help solubilize the compounds. Each individual reaction was diluted with 80 μL of methanol:acetronitrile (1:3) containing 5 μM N-docdecanoyl-NBD-galactosylceramide (internal standard) to stop the reaction. 200 μL H2O:acetonitile (1:1) was added to precipitate the protein. After sufficient mixing, the plates were centrifuged at 2469 g for 38 minutes, 200 μL of supernatant was transferred to a LC/MS 96-deep well plate and a second spin was performed at 2469 g for 10 minutes. The final supernatant was injected in triplicate for RapidFire/MS/MS analysis.
Quantitative Analysis Using the RapidFire/MS/MS Method:
The quantitative analysis of C6-NBD-dihydro-ceramide and C6-NBD-dihydro-galactosylceramide was performed on a Rapid Fire 360 high-throughput mass spectrometry system (Agilent Technologies, Palo Alto, Calif.) coupled with a API4000^+ triple quadrupole mass spectrometer (Applied Biosystems, Concord, Ontario, Canada). RapidFire software packages, including RapidFire Control panel, RapidFire UI and RapidFire Integrator (Agilent Technologies), were used to control the RapidFire instrument and to process data. Analyst 1.6.2 software packages (Applied Biosystems) were used to control the MS system and acquire MS data. […] of sample was loaded on a micro-scale C4 solid-phase extraction (SPE) cartridge (Agilent Technologies) and salts were removed using water supplemented with 0.1% formic acid at the flow rate of 1.5 mL/min for 3 sec. C6-NBD-dihydro-ceramide and C6-NBD-dihydro-galactosylceramide were co-eluted into the mass spectrometer using acetonitrile containing 0.1% formic acid at the flow rate of 1.0 mL/min for 3 sec. The total cycle time of one injection was 8 secs. The MS/MS detection was performed in ESI negative mode. The mass transition of C6-NBD-dihydro-galactosylceramide was m/z 752.6→678.6 using a −40 V collision energy, the mass transition of C6-NBD-dihydro-ceramide was m/z 590.6→115.8 using a −40 V collision energy and the mass transition of N-docdecanoyl-NBD-galactosylceramide was m/z 820.9→746.3 using a −45 V collision energy.
The C6-NBD-dihydro-galactosylceramide reading was normalized first by dividing the peak area of C6-NBD-dihydro-galactosylceramide by the peak area of the internal standard, N-docdecanoyl-NBD-galactosylceramide. IC50 values (see Table 1, where data ranges with one asterix (*) correspond to analysis using the RapidFire/MS/MS method, and data ranges with two asterixes (**) correspond to analysis using the RapidFire/MS/MS method with 0.01% Tween added) were generated from sigmoidal dose-response curves (variable slope) with GraphPad Prism software (GraphPad Software, Inc., San Diego, Calif.) using the normalized peak areas of C6-NBD-dihydro-galactosylceramide or the percent inhibition of C6-NBD-dihydro-galactosylceramide accumulation relative to DMSO control. […]
`NC1CC2CCC(C1)N2C(=O)[C@H](NC(=O)[C@@H](O)c1ccc2cc(OC3CCCC3)ccc2c1)C(F)(F)c1ccc(Br)cc1` (stereo partly drawn) [Compound 41-6, (2S)—N-((2S)-3-(3-amino-8-azabicyclo[3.2.1]octan-8-yl)-1-(4-bromophenyl)-1,1-difluoro-3-oxopropan-2-yl)-2-(6-(cyclopentyloxy)naphthalen-2-yl)-2-hydroxyacetamide trifluoroacetate]: the pIC50 is 4.00 to 4.52. Turning to `NC1CC2CCC(C1)N2C(=O)[C@@H](NS(=O)(=O)c1ccc2cc(OC3CCCC3)ccc2c1)C(F)(F)c1ccc(I)cc1` (stereo partly drawn) [Compound 42-1, N-((2R)-3-(3-amino-8-azabicyclo[3.2.1]octan-8-yl)-1,1-difluoro-1-(4-iodophenyl)-3-oxopropan-2-yl)-6-(cyclopentyloxy)naphthalene-2-sulfonamide trifluoroacetate], the pIC50 was over 6.00. As for `NC1CC2CCC(C1)N2C(=O)[C@H](NS(=O)(=O)c1ccc2cc(OC3CCCC3)ccc2c1)C(F)(F)c1ccc(I)cc1` (stereo partly drawn) [Compound 42-2, N-((2S)-3-(3-amino-8-azabicyclo[3.2.1]octan-8-yl)-1,1-difluoro-1-(4-iodophenyl)-3-oxopropan-2-yl)-6-(cyclopentyloxy) naphthalene-2-sulfonamide trifluoroacetate], the figure is 5.00 to 6.00; as for `NC1CCN(C(=O)[C@@H](NS(=O)(=O)c2ccc3cc(OC4CCCC4)ccc3c2)C(F)(F)c2ccc(-c3ccccc3)cc2)CC1` [Compound 43-1, (R)—N-(1-([1,1′-biphenyl]-4-yl)-3-(4-aminopiperidin-1-yl)-1,1-difluoro-3-oxopropan-2-yl)-6-(cyclopentyloxy)naphthalene-2-sulfonamide], over 6.00; as for `NC1CCN(C(=O)[C@H](NS(=O)(=O)c2ccc3cc(OC4CCCC4)ccc3c2)C(F)(F)c2ccc(-c3ccccc3)cc2)CC1` [Compound 43-2, (S)—N-(1-([1,1′-biphenyl]-4-yl)-3-(4-aminopiperidin-1-yl)-1,1-difluoro-3-oxopropan-2-yl)-6-(cyclopentyloxy)naphthalene-2-sulfonamide], 5.00 to 6.00. In turn, `CN([C@H](C(=O)N1CCC(N)CC1)C(F)(F)c1ccc(Br)cc1)S(=O)(=O)c1ccc2cc(OC3CCCC3)ccc2c1` [Compound 44-1, (R)—N-(3-(4-aminopiperidin-1-yl)-1-(4-bromophenyl)-1,1-difluoro-3-oxopropan-2-yl)-6-(cyclopentyloxy)-N-methylnaphthalene-2-sulfonamide] gave a negative-log IC50 (pIC50) of over 6.00.

Turning to `CN([C@@H](C(=O)N1CCC(N)CC1)C(F)(F)c1ccc(Br)cc1)S(=O)(=O)c1ccc2cc(OC3CCCC3)ccc2c1` [Compound 44-2, (S)—N-(3-(4-aminopiperidin-1-yl)-1-(4-bromophenyl)-1,1-difluoro-3-oxopropan-2-yl)-6-(cyclopentyloxy)-N-methylnaphthalene-2-sulfonamide], the pIC50 was 5.00 to 6.00. For the compound `COc1ccc(C(F)(F)[C@H](NS(=O)(=O)c2ccc3cc(OC4CCCC4)ccc3c2)C(=O)N2C3CCC2CC(N)C3)cc1` (stereo partly drawn) [Compound 45-1, N-((2R)-3-(3-amino-8-azabicyclo[3.2.1]octan-8-yl)-1,1-difluoro-1-(4-methoxyphenyl)-3-oxopropan-2-yl)-6-(cyclopentyloxy)naphthalene-2-sulfonamide], the pIC50 is 4.52 to 5.00.

Compound `COc1ccc(C(F)(F)[C@@H](NS(=O)(=O)c2ccc3cc(OC4CCCC4)ccc3c2)C(=O)N2C3CCC2CC(N)C3)cc1` (stereo partly drawn) [Compound 45-2, N-((2S)-3-(3-amino-8-azabicyclo[3.2.1]octan-8-yl)-1,1-difluoro-1-(4-methoxyphenyl)-3-oxopropan-2-yl)-6-(cyclopentyloxy)naphthalene-2-sulfonamide] had a negative logarithm of the IC50 (pIC50) of 5.00 to 6.00.

`CC(C)Oc1ccc2cc(S(=O)(=O)N(C)[C@H](C(=O)N3C4CCC3CC(N)C4)C(F)(F)c3ccc(Br)cc3)ccc2c1` (stereo partly drawn) [Compound 46-1, N-((2R)-3-(3-amino-8-azabicyclo[3.2.1]octan-8-yl)-1-(4-bromophenyl)-1,1-difluoro-3-oxopropan-2-yl)-6-isopropoxy-N-methylnaphthalene-2-sulfonamide trifluoroacetate] gave a pIC50 of 5.00 to 6.00.

`CC(C)Oc1ccc2cc(S(=O)(=O)N(C)[C@@H](C(=O)N3C4CCC3CC(N)C4)C(F)(F)c3ccc(Br)cc3)ccc2c1` (stereo partly drawn) [Compound 46-2, N-((2S)-3-(3-amino-8-azabicyclo[3.2.1]octan-8-yl)-1-(4-bromophenyl)-1,1-difluoro-3-oxopropan-2-yl)-6-isopropoxy-N-methylnaphthalene-2-sulfonamide trifluoroacetate]: the negative logarithm of the IC50 (pIC50) is 4.00 to 4.52. As for `NC1CC2CCC(C1)N2C(=O)[C@@H](NS(=O)(=O)c1ccc2cc(OC3CCC3)ccc2c1)C(F)(F)c1ccc(Br)cc1` (stereo partly drawn) [Compound 47-1, N-((2R)-3-(3-amino-8-azabicyclo[3.2.1]octan-8-yl)-1-(4-bromophenyl)-1,1-difluoro-3-oxopropan-2-yl)-6-cyclobutoxynaphthalene-2-sulfonamide], the figure is 5.00 to 6.00; as for `NC1CC2CCC(C1)N2C(=O)[C@H](NS(=O)(=O)c1ccc2cc(OC3CCC3)ccc2c1)C(F)(F)c1ccc(Br)cc1` (stereo partly drawn) [Compound 47-2, N-((2S)-3-(3-amino-8-azabicyclo[3.2.1]octan-8-yl)-1-(4-bromophenyl)-1,1-difluoro-3-oxopropan-2-yl)-6-cyclobutoxynaphthalene-2-sulfonamide], 4.52 to 5.00; as for `CN([C@H](C(=O)N1C2CCC1CC(N)C2)C(F)(F)c1ccc(-c2ccccc2)cc1)S(=O)(=O)c1ccc2cc(OC3CCCC3)ccc2c1` (stereo partly drawn) [Compound 49-1, N-((2R)-1-([1,1′-biphenyl]-4-yl)-3-(3-amino-8-azabicyclo[3.2.1]octan-8-yl)-1,1-difluoro-3-oxopropan-2-yl)-6-(cyclopentyloxy)-N-methylnaphthalene-2-sulfonamide], 5.00 to 6.00. Consider `CN([C@@H](C(=O)N1C2CCC1CC(N)C2)C(F)(F)c1ccc(-c2ccccc2)cc1)S(=O)(=O)c1ccc2cc(OC3CCCC3)ccc2c1` (stereo partly drawn) [Compound 49-2, N-((2S)-1-([1,1′-biphenyl]-4-yl)-3-(3-amino-8-azabicyclo[3.2.1]octan-8-yl)-1,1-difluoro-3-oxopropan-2-yl)-6-(cyclopentyloxy)-N-methylnaphthalene-2-sulfonamide], for which the negative logarithm of the IC50 (pIC50) is 4.52 to 5.00. Take `NC1CC2CCC(C1)N2C(=O)[C@@H](NS(=O)(=O)c1ccc(OCC2CCCCC2)cc1)C(F)(F)c1ccc(-c2ccc(Cl)cc2)cc1` (stereo partly drawn) [Compound 50-1, N-((2R)-3-(3-amino-8-azabicyclo[3.2.1]octan-8-yl)-1-(4′-chloro-[1,1′-biphenyl]-4-yl)-1,1-difluoro-3-oxopropan-2-yl)-4-(cyclohexylmethoxy) benzenesulfonamide trifluoroacetate]: the negative-log IC50 (pIC50) was over 6.00.
